ChEMBL document CHEMBL1201862, “PubChem BioAssay data set” (2004)
Active and inactive are the calls of the source.

target: Genome polyprotein (dengue virus type 2, UniProt P29990); assay: Dengue-2 NS5 methyltransferase inhibitors, primary screen, biochemical, confirmation dose response (AID 588689); type: functional; conditions: not given
Sequence (P29990 2492-3391 limits assumed): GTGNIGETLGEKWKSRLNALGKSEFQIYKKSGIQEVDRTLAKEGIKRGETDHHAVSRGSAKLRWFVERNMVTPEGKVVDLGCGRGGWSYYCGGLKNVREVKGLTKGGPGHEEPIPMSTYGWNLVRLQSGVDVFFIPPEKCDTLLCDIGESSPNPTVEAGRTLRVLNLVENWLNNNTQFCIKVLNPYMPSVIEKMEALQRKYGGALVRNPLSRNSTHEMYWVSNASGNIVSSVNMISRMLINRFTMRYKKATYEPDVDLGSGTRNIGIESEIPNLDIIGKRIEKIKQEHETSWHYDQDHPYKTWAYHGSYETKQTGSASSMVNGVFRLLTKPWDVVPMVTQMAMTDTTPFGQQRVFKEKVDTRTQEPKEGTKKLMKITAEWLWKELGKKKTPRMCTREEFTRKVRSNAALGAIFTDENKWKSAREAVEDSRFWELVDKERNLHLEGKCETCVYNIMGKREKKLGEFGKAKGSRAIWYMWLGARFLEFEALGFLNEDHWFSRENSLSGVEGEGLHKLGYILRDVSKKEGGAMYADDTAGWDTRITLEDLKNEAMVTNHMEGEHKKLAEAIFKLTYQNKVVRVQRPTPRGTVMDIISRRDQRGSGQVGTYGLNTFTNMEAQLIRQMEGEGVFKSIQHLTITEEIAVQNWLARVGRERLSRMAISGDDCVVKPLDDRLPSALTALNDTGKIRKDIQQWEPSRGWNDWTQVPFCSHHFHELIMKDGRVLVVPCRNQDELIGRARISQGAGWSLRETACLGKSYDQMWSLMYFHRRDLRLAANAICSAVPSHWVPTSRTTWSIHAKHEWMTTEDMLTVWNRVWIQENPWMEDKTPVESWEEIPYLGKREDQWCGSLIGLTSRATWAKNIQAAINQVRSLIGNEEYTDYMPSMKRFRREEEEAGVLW

Compound | IC50
COc1cc(/C=C2/C(=O)NN(c3ccc(F)cc3)C2=O)cc([N+](=O)[O-])c1O | > 100 µM (active)

test system: not listed separately; assay: microbe, parasite or virus in culture; type: functional; conditions: Mycobacterium tuberculosis

Compound | CC50
Cc1ccc(NC(=S)N(CCCN2CCCC2)Cc2cccn2Cc2ccc(Cl)cc2)cc1C | 17.7 µM (active)
CCCCn1c(SCc2ncc(-c3ccccc3)o2)nc2cc(S(N)(=O)=O)ccc21 | > 40 µM (active)
CSc1nsc(/C=C/Nc2ccc(O)cc2C)c1C#N | > 40 µM (active)
COc1ccc(-c2ccnc3nc(N4CCN(c5ccccc5)CC4)nn23)cc1 | > 40 µM (active)
Oc1ccccc1/N=C/c1ccc[nH]1 | > 40 µM (active)
C/N=c1\scc(-c2ccccc2Br)n1/N=C/c1ccc[nH]1 | > 40 µM (active)
COc1cc(NC(=O)c2ccc(C(C)(C)C)cc2)c(OC)cc1NC(=O)CN1CCCCC1 | > 40 µM (active)

target: T1, Heat shock factor protein 1 (Mus musculus, UniProt P38532); assay: HSF1 potentiators in luciferase reporter cells, confirmation, cell-based, NIH3T3, luminescence, dose retest (AID 435004); type: functional; conditions: not given;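 also: stress induced by proteasome inhibitor MG132 added 30 min after compound; luciferase reporter driven by HSF1 response element in NIH3T3 cells; actives raise luminescence as potentiators of the MG132 stress response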
T1 sequence (P38532 whole entry): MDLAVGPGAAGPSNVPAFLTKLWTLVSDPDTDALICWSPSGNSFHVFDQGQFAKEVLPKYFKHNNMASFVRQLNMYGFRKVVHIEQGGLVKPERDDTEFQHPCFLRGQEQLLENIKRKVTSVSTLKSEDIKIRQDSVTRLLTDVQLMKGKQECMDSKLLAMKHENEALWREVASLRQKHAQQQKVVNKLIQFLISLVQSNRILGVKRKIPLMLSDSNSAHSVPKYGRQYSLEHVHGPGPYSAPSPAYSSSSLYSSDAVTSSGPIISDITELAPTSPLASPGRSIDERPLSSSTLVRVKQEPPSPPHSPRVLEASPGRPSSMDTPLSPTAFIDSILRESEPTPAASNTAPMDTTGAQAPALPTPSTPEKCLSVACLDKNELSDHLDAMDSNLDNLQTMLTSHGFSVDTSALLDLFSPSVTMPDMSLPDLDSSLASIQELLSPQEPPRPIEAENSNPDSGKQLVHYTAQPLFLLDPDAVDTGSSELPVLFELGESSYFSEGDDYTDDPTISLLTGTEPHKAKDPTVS

Compound | EC50
O=C(C1=C[C@@H](C2CC2)C[C@@H](OCc2ccc(CO)cc2)O1)N1CCN(Cc2ccccc2)CC1 | > 260 µM (inactive)
COc1cc(C2NC(=O)NC(C)=C2C(=O)OC2CCCCC2)cc(Cl)c1O (stereo not drawn) | > 260 µM (inactive)
CC(=O)c1c(C)[nH]c(C(=O)Nc2cccc(C)n2)c1C | > 260 µM (inactive)
COc1ccc(C2(C)NC(=O)N(CC3CCCCC3)C2=O)cc1 (stereo not drawn) | > 260 µM (inactive)
CCOC(=O)CC1NCCc2c1[nH]c1ccc(OC)cc21 (stereo not drawn) | > 260 µM (inactive)
CO/N=C/c1cc([N+](=O)[O-])ccc1Sc1ccc(C)cc1 | > 260 µM (inactive)
CC(C)CC(NS(=O)(=O)c1ccc2c(c1)oc(=O)n2C)C(=O)NC1CCCc2ccccc21 (stereo not drawn) | > 260 µM (inactive)
O=C1C2CCCCC2C(=O)N1Cc1ccccc1 (stereo not drawn) | > 260 µM (inactive)
COc1ccccc1-c1ccc(SCC(=O)Nc2cc(C)on2)nn1 | > 260 µM (inactive)
Cc1ccccc1-c1cc(=O)c2c(O)cccc2o1 | > 260 µM (inactive)
COc1ccc(/C=C/C(=O)OC2CCCN(C)C2)cc1 (stereo not drawn) | > 260 µM (inactive)
COC(=O)C1CCN(C(=O)Cc2c(OC)ccc3cc(Br)ccc23)CC1 | 68.2 µM (active)
Nc1n[nH]c(SCC(=O)Nc2ccc([N+](=O)[O-])cc2Br)n1 | > 260 µM (inactive)

target: T2, Protein skinhead-1 (Caenorhabditis elegans, UniProt P34707); assay: not given; type: functional; conditions: not given
T2 sequence (P34707 whole entry): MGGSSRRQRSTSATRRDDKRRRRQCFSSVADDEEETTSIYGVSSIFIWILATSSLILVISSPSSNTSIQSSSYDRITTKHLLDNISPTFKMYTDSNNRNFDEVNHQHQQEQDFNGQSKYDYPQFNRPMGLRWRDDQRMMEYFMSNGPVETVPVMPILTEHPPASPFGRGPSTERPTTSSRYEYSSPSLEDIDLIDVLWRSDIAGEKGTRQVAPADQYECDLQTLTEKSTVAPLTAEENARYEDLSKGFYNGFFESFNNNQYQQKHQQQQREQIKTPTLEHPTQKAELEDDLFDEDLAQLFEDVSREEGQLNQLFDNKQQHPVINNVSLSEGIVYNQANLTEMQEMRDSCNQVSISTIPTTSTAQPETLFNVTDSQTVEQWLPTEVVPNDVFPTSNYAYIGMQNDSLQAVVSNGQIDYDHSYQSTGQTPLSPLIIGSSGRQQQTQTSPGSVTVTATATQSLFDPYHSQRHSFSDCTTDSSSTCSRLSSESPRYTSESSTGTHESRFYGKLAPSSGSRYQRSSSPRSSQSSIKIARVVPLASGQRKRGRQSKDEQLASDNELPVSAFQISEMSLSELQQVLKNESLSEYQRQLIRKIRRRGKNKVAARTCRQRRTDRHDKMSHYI

Compound | IC50
Cn1nnnc1SCC(=O)N1CCN(c2cccc(Cl)c2)CC1 | > 100 µM (inactive)
COc1ccc(CN2CCN(c3ccccc3F)CC2)cc1O | > 100 µM (inactive)
C(=C\c1nc(-c2ccncc2)no1)/c1ccccc1 | 12.4 µM (active)
CCN(CC)C(=O)Oc1ccc(Br)c2ccccc12 | > 100 µM (inactive)
Cn1/c(=N/C(=O)C2CC2)sc2cc(F)cc(F)c21 | > 100 µM (inactive)

test system: not listed separately; assay: growth suppression of PTEN-null colon cells, dose response, cell-based, HCT116 PTEN knockout (AID 1047); type: functional; conditions: not given;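 also: HCT116 colon tumor cells with PTEN knocked out; cells exposed to compound for 60 hours before readout; potency for loss of cell viability measured by luminescence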

Compound | EC50
CCCCn1c(SCc2ncc(-c3ccccc3)o2)nc2cc(S(N)(=O)=O)ccc21 | 26 µM (active)

test system: not listed separately; assay: growth suppression of beta-catenin-knockout colon cells, dose response, cell-based, HCT116, human colon tumor (AID 1045); type: functional; conditions: not given;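 also: HCT116 colon tumor cells with beta catenin knocked out; cells exposed to compound for 60 hours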

Compound | EC50
CCCCn1c(SCc2ncc(-c3ccccc3)o2)nc2cc(S(N)(=O)=O)ccc21 | 27.4 µM (active)
